Where two headings read alike, the source gives them in different places.
Assays:
Assay in all cases: In vitro competitive activity-based protein profiling (gel-based, FP-Rh or HT-01 probe)
Assay type in all cases: biochemical
ABHD6 = target: T1, ABHD6 (Mus musculus, UniProt Q8R2Y0); conditions: for inhibition at 1 µM: 1 μM inhibitor, read-out: % Inhibition at 1 μM, C = ABHD6; for inhibition at 10 µM: 10 μM inhibitor, read-out: % Inhibition at 10 μM, C = ABHD6
T1 construct: Proteomes (mouse brain membrane fraction or cell lysates); from tissue; host or cells: mouse brain membrane fraction (or cell lysates, not specified)
T1 sequence (Q8R2Y0 1-336): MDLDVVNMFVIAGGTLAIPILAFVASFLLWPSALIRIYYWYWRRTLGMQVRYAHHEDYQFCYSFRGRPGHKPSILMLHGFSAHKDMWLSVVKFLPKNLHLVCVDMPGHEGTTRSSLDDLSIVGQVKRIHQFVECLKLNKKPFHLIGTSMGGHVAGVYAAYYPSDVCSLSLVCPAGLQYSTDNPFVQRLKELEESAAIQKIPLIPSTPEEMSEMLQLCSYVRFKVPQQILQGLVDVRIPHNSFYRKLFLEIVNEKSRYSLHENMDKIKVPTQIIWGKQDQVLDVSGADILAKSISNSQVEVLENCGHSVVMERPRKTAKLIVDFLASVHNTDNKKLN
Outline: (§1)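 Mouse brain membrane proteome or cell lysate (1.0 mg/mL protein) was preincubated with inhibitor at varying concentrations for 30 min at 37° C, then labelled with FP-Rh or HT-01 for 30 min at 37° C. After SDS-PAGE, residual hydrolase activity was quantified as in-gel fluorescence of each band.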

FAAH = target: T2, FAAH (Mus musculus, UniProt O08914); conditions: for inhibition at 1 µM: 1 μM inhibitor, read-out: % Inhibition at 1 μM, B = FAAH; for inhibition at 10 µM: 10 μM inhibitor, read-out: % Inhibition at 10 μM, B = FAAH
T2 construct: Proteomes (mouse brain membrane fraction or cell lysates); from tissue; host or cells: mouse brain membrane fraction (or cell lysates, not specified)
T2 sequence (O08914 1-579): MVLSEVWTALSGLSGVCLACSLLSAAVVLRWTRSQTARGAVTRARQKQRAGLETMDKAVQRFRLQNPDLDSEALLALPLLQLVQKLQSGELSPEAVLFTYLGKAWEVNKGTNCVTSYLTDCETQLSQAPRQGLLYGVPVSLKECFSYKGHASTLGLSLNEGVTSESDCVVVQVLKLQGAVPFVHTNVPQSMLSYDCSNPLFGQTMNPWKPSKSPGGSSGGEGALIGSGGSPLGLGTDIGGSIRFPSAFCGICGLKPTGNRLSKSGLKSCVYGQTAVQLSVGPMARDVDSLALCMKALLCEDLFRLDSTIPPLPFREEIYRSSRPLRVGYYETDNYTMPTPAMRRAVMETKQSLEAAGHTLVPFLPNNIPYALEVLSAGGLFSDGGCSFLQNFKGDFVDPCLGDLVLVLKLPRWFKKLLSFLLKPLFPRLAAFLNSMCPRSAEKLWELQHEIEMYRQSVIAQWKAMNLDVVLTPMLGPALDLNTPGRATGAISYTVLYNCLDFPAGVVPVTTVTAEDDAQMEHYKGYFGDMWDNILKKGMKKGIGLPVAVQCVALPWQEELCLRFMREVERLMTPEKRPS
Outline: as §1

MAGL = target: T3, MAGL (Mus musculus, UniProt O35678); conditions: for inhibition at 1 µM: 1 μM inhibitor; for inhibition at 10 µM: 10 μM inhibitor
T3 construct: Proteomes (mouse brain membrane fraction or cell lysates); from tissue; host or cells: mouse brain membrane fraction (or cell lysates, not specified)
T3 sequence (O35678 1-303): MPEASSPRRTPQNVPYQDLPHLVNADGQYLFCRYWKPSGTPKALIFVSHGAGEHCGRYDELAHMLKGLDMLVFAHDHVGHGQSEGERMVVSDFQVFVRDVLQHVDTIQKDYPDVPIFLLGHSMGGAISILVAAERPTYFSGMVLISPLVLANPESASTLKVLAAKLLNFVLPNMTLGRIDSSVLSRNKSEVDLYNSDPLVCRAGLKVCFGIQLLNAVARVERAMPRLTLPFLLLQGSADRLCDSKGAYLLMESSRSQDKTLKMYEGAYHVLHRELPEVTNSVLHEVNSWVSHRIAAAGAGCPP
Outline: as §1

PLA2G7 = target: T4, PLA2G7 (Mus musculus, UniProt Q60963); conditions: for inhibition at 1 µM: 1 μM inhibitor, read-out: % Inhibition at 1 μM, D = PLA2G7; for inhibition at 10 µM: 10 μM inhibitor, read-out: % Inhibition at 10 μM, D = PLA2G7; for IC50: mouse brain membrane fraction or cell lysates, 30 min preincubation at 37° C.
T4 construct: Proteomes (mouse brain membrane fraction or cell lysates); from tissue; host or cells: mouse brain membrane fraction (or cell lysates, not specified)
T4 sequence (Q60963 22-440): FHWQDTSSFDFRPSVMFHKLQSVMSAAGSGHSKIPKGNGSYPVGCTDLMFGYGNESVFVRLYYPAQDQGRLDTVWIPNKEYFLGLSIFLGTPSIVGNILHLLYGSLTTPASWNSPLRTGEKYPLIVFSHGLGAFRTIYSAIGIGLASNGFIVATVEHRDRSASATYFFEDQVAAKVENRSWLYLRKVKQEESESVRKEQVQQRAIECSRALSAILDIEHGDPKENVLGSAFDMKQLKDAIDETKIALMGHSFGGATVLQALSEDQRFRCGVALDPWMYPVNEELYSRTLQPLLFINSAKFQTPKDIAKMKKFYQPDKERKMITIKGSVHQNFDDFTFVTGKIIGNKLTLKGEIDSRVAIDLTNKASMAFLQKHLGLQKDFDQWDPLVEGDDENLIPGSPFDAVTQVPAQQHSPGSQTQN
Outline: as §1

[1] = mouse brain membrane fraction or cell lysates, 30 min preincubation at 37° C., read-out: Mouse (IC50 value, nM) ABHD6
[2] = mouse brain membrane fraction or cell lysates, 30 min preincubation at 37° C., read-out: Mouse (IC50 value, nM) FAAH
[3] = mouse brain membrane fraction or cell lysates, 30 min preincubation at 37° C., read-out: Mouse (IC50 value, nM) MAGL

| SMILES | inhibition at 1 µM (ABHD6) [%] | inhibition at 10 µM (ABHD6) [%] | inhibition at 1 µM (FAAH) [%] | inhibition at 10 µM (FAAH) [%] | inhibition at 1 µM (MAGL) [%] | inhibition at 10 µM (MAGL) [%] | inhibition at 1 µM (PLA2G7) [%] | inhibition at 10 µM (PLA2G7) [%] | inhibition at 1 µM (ABHD6; gel-based competitive ABPP) [%] | inhibition at 1 µM (FAAH; gel-based competitive ABPP) [%] | inhibition at 1 µM (MAGL; gel-based competitive ABPP) [%] | inhibition at 1 µM (PLA2G7; gel-based competitive ABPP) [%] | further results |
| --- | --- | --- | --- | --- | --- | --- | --- | --- | --- | --- | --- | --- | --- |
| CC(C)(C)OC(=O)N1CCN(C(=O)n2cccn2)CC1 [Example 4, tert-Butyl 4-(1H-pyrazole-1-carbonyl)piperazine-1-carboxylate] | 25 to 75 | > 75 | > 75 | > 75 | < 25 | 25 to 75 | < 25 | > 75 | – | – | – | – | – |
| N#Cc1cnn(C(=O)N2CCCC2)c1 [Example 203, 1-(Pyrrolidine-1-carbonyl)-1H-pyrazole-4-carbonitrile] | < 25 | > 75 | > 75 | > 75 | < 25 | > 75 | < 25 | > 75 | – | – | – | – | – |
| O=C(N1CCN(Cc2ccccc2N2CCOCC2)CC1)n1cc(C(F)(F)F)cn1 [Example 281, (4-(2-Morpholinobenzyl)piperazin-1-yl)(4-(trifluoromethyl)-1H-pyrazol-1-yl)methanone] | – | – | – | – | – | – | – | – | > 75 | > 75 | > 75 | > 75 | – |
| CN(Cc1cccc(-c2ccncc2)c1)C(=O)n1cc(-c2ccccc2)cn1 [Example 219, N-Methyl-4-phenyl-N-(3-(pyridin-4-yl)benzyl)-1H-pyrazole-1-carboxamide] | > 75 | > 75 | > 75 | > 75 | > 75 | > 75 | > 75 | > 75 | – | – | – | – | IC50 (ABHD6; [1]): 100 to 1000 nM; IC50 (FAAH; [2]): < 100 nM; IC50 (MAGL; [3]): > 1000 nM; IC50 (PLA2G7): < 100 nM |
| CCN(Cc1ccc(Cl)cc1)C(=O)n1cc(C)cn1 [Example 254, N-(4-Chlorobenzyl)-N-ethyl-4-methyl-1H-pyrazole-1-carboxamide] | – | – | – | – | – | – | – | – | < 25 | < 25 | < 25 | < 25 | – |
| O=C(N1CCN(c2ccccc2)CC1)n1cc(C(F)(F)F)cn1 [Example 202, (4-Phenylpiperazin-1-yl)(4-(trifluoromethyl)-1H-pyrazol-1-yl)methanone] | > 75 | > 75 | > 75 | > 75 | > 75 | > 75 | > 75 | > 75 | – | – | – | – | – |
| O=C(N1CCN(Cc2ccccc2)CC1)n1cc(Cl)cn1 [Example 186, (4-Benzylpiperazin-1-yl)(4-chloro-1H-pyrazol-1-yl)methanone] | > 75 | > 75 | > 75 | > 75 | > 75 | > 75 | < 25 | > 75 | – | – | – | – | IC50 (ABHD6): < 100 nM; IC50 (FAAH): 100 to 1000 nM; IC50 (MAGL): < 100 nM; IC50 (PLA2G7): > 1000 nM |
| Cc1cccc(CN2CCN(C(=O)n3cc(C(F)(F)F)cn3)CC2)c1 [Example 270, (4-(3-Methylbenzyl)piperazin-1-yl)(4-(trifluoromethyl)-1H-pyrazol-1-yl)methanone] | – | – | – | – | – | – | – | – | > 75 | > 75 | > 75 | > 75 | – |
| O=C(c1cnn(C(=O)N2CCN(Cc3cccnc3)CC2)c1)N1CCC1 [Example 88, Azetidin-1-yl(1-(4-(pyridin-3-ylmethyl)piperazine-1-carbonyl)-1H-pyrazol-4-yl)methanone] | – | > 75 | – | 25 to 75 | – | < 25 | – | > 75 | – | – | – | – | – |
| O=C(N1CCN(Cc2cccc(Cl)c2)CC1)n1cc(C(F)(F)F)cn1 [Example 268, (4-(3-Chlorobenzyl)piperazin-1-yl)(4-(trifluoromethyl)-1H-pyrazol-1-yl)methanone] | – | – | – | – | – | – | – | – | > 75 | > 75 | > 75 | > 75 | IC50 (ABHD6; [1]): < 100 nM; IC50 (FAAH; [2]): < 100 nM; IC50 (MAGL; [3]): < 100 nM; IC50 (PLA2G7): 100 to 1000 nM |
| O=C(N1CCN(c2cccc(N3CCCC3)c2)CC1)n1cc(C(F)(F)F)cn1 [Example 240, (4-(3-(Pyrrolidin-1-yl)phenyl)piperazin-1-yl)(4-(trifluoromethyl)-1H-pyrazol-1-yl)methanone] | > 75 | > 75 | > 75 | > 75 | > 75 | > 75 | > 75 | > 75 | – | – | – | – | – |
| Cc1cc(-c2ccccc2)ccc1CN1CCN(C(=O)n2cc(C(=O)N3CCCC3)cn2)CC1 [Example 85, (4-((3-Methyl-[1,1′-biphenyl]-4-yl)methyl)piperazin-1-yl)(4-(pyrrolidine-1-carbonyl)-1H-pyrazol-1-yl)methanone] | > 75 | > 75 | > 75 | > 75 | > 75 | > 75 | < 25 | > 75 | – | – | – | – | IC50 (ABHD6; [1]): 100 to 1000 nM; IC50 (FAAH; [2]): < 100 nM; IC50 (MAGL; [3]): 100 to 1000 nM |
| N#Cc1cnn(C(=O)N2CCCCCC2)c1 [Example 292, 1-(Azepane-1-carbonyl)-1H-pyrazole-4-carbonitrile] | – | – | – | – | – | – | – | – | 25 to 75 | > 75 | 25 to 75 | < 25 | inhibition at 10 µM (ABHD6; gel-based competitive ABPP): > 75%; IC50 (ABHD6; [1]): > 1000 nM; inhibition at 10 µM (FAAH; gel-based competitive ABPP): > 75%; IC50 (FAAH; [2]): 100 to 1000 nM; inhibition at 10 µM (MAGL; gel-based competitive ABPP): > 75%; IC50 (MAGL; [3]): > 1000 nM; inhibition at 10 µM (PLA2G7; gel-based competitive ABPP): > 75%; IC50 (PLA2G7): > 1000 nM |
| CC(=O)N(C)CCN(C)C(=O)n1cc(Cl)cn1 [Example 193, 4-Chloro-N-methyl-N-(2-(N-methylacetamido)ethyl)-1H-pyrazole-1-carboxamide] | – | < 25 | – | < 25 | – | < 25 | – | < 25 | – | – | – | – | – |
